Data published in patent publication EP4699622A1, “COMBINATION OF ANTIBODY-DRUG CONJUGATE AND OTHER MEDICINE” (Daiichi Sankyo Company, Limited, priority 2023, dated 2024).
Where two headings read alike, the source gives them in different places.

What was measured:
[1] = system: CD37-positive human chronic lymphocytic leukemia cell line JVM-2; test: Cell growth inhibition by combination with BTK inhibitors (Celltiter-Glo 2.0); type: cell-based; conditions: read-out: D2 (50% cell growth inhibition concentration, BTK inhibitor alone)
Protocol: (§1) During the culture period, the cells were cultured under conditions of 37°C and 5% CO2 in all the cases. The cells thus cultured for 6 days were reacted using Celltiter-Glo 2.0 Cell Viability Assay (Promega Corp,) in accordance with the attached manual, followed by the measurement of the amount of luminescence from each well using a plate reader (Envision 2105 XCite multimode plate reader, PerkinElmer, Inc.). […] Cell growth inhibition rate (%) = (T/C) × 100 [formula]
(§2) From the calculated 50% cell growth inhibition concentrations (anti-CD37 antibody-drug conjugate (1) alone: D1, each BTK inhibitor alone: D2, anti-CD37 antibody-drug conjugate (1) in the combination: d1, each BTK inhibitor drug in the combination: d2), a combination index (CI) was calculated according to the following formula, and assessed as a synergistic effect with CI < 1, an additive effect with CI = 1, and an antagonizing effect with CI > 1 (see Adv. Enzyme Regul. 1984, P. 2227-55) . CI = (d1/D1) + (d2/D2) [formula]

[2] = system: CD37-positive human chronic lymphocytic leukemia cell line JVM-13; test: as above; type: cell-based; conditions: JVM13, 144 h, read-out: D2 (50% cell growth inhibition concentration, BTK inhibitor alone)
Protocol: as §1, §2

[3] = system: CD37-positive human chronic lymphocytic leukemia cell line JVM-3; test: as above; type: cell-based; conditions: read-out: D2 (50% cell growth inhibition concentration, BTK inhibitor alone)
Protocol: as §1, §2

[4] = system: CD37-positive human chronic lymphocytic leukemia cell line JVM-13; test: Antitumor effect - (4): JVM-13 subcutaneous xenograft; conditions: JVM-13 xenograft; for TGI (%): Day 35, grouping Day 14, ADC (1) 0.3 mg/kg i.v. once, rituximab 10 mg/kg i.v. once, bendamustine 12.5 mg/kg i.p. day of grouping and next day, venetoclax 100 mg/kg oral every day, ibrutinib 200 mg/kg oral every day; for CR (%) on final day of observation / Change from baseline (%): ADC (1) 0.3 mg/kg i.v., rituximab 10 mg/kg i.v., bendamustine 12.5 mg/kg i.p. x2, venetoclax 100 mg/kg oral daily, ibrutinib 200 mg/kg oral daily; for Change from baseline (%): tumor volume on Day 35 vs Day 14 baseline

| IC50 ([1]; 144 h, JVM-2, 6 days culture) [µM] | IC50 ([2]; JVM-13, 6 days culture) [µM] | IC50 ([3]; 144 h, JVM-3, 6 days culture) [µM] | Structure (SMILES) | IC50 ([1]; JVM-2, 144 h) [µM] | IC50 [2] [µM] | IC50 ([3]; JVM-3, 144 h) [µM] | TGI (%) [4] [%] | CR (%) on final day of observation [4] [%] | Change from baseline (%) [4] [%] |
| --- | --- | --- | --- | --- | --- | --- | --- | --- | --- |
| 25.8 | 7.15 | 16.6 | CC#CC(=O)N1CCC[C@H]1c1nc(-c2ccc(C(=O)Nc3ccccn3)cc2)c2c(N)nccn12 [Acalabrutinib, acalabrutinib] |  |  |  |  |  |  |
|  |  |  | C=CC(=O)N1CCC[C@@H](n2nc(-c3ccc(Oc4ccccc4)cc3)c3c(N)ncnc32)C1 [Ibrutinib, ibrutinib] | 1.19 | 0.58 | 0.27 | -12 | 0 | 776.7 |
|  |  |  | CC1(C)CCC(CN2CCN(c3ccc(C(=O)NS(=O)(=O)c4ccc(NCC5CCOCC5)c([N+](=O)[O-])c4)c(Oc4cnc5[nH]ccc5c4)c3)CC2)=C(c2ccc(Cl)cc2)C1 [Venetoclax, venetoclax] |  |  |  | 25 | 0 | 490.9 |
| 6.86 | 2.83 | 17.9 | C=CC(=O)N1CCC([C@@H]2CCNc3c(C(N)=O)c(-c4ccc(Oc5ccccc5)cc4)nn32)CC1 [Zanubrutinib, zanubrutinib] |  |  |  |  |  |  |
